We go through six molecules from paper PMC12044458 (ACS Omega, 2025).

Assay [1] deals with Poly(I:C) HMW (RNA, polymer, hypoxanthine (inosine) in place of every G of strand 1 (polyinosinic acid)) G/C. Put plainly: fluorescence titration of compound emission. The settings on record: PBS, 0 mM Mg2+, <1% DMSO, 5 µM compound, per base pair.
For assay [2], the system named is Poly(I:C) Na^+ γ (RNA, polymer, hypoxanthine (inosine) in place of every G of strand 1 (polyinosinic acid); gamma-irradiated, possible strand breaks) G/C. Put plainly: fluorescence titration of compound emission. The settings on record: PBS, 0 mM Mg2+, <1% DMSO, 5 µM compound, per base pair.
The test system of assay [3] is Poly(I:C) Na^+ (RNA, polymer, hypoxanthine (inosine) in place of every G of strand 1 (polyinosinic acid)) G/C. The experiment in a line: fluorescence titration of compound emission. The settings on record: PBS, <1% DMSO, 5 µM compound, per base pair.
Assay [4] relates to Poly(I:C) HMW fluorescein (RNA, polymer, hypoxanthine (inosine) in place of every G of strand 1 (polyinosinic acid)) G/C. The experiment in a line: microscale thermophoresis. The settings on record: PBS-T, PBS-T pH 7.4, 200 nM labelled Poly(I:C).
The subject of assay [5] is Poly(I:C) HMW (RNA, polymer, hypoxanthine (inosine) in place of every G of strand 1 (polyinosinic acid)) G/C. Put plainly: UV melting. Conditions: PBS, 0 mM Mg2+, compound concentration not in material, per base.
Assay [6] relates to Poly(I:C) Na^+ (RNA, polymer, hypoxanthine (inosine) in place of every G of strand 1 (polyinosinic acid)) G/C. The experiment in a line: UV melting. Conditions: PBS, 0 mM Mg2+, compound concentration not in material, per base.
For assay [7], the target named is T1, human RNase.
T1 construct: his-tag-labeled human RNase
Put plainly: microscale thermophoresis (MST). The class given is binding. For orientation: Microscale thermophoresis detects binding through changes in fluorescence in a small temperature gradient.

Assay [8] has as its target T1, human RNase. Put plainly: microscale thermophoresis (MST), two-site fit; Kd2 =[…]. The class given is binding.
Assay [9] concerns the target T1, human RNase. The description is as above. The class given is binding. This is another data set of the same source.
Assay [10] relates to Poly(I:C) HMW (RNA, polymer, hypoxanthine (inosine) in place of every G of strand 1 (polyinosinic acid)) G/C. Put plainly: circular dichroism. The settings on record: PBS, 0 mM Mg2+, 100 µM compound and 100 µM Poly(I:C).
The mark [11] stands for this setting: 540 nm, 1:1 model, conditional constant, per base.
The mark [12] stands for this setting: 540 nm, 1:2 model, not a 1:1 Ka.
[13] abbreviates: 595 nm, 1:1 model, conditional constant, per base.
Where [14] appears, read: 595 nm, 1:2 model, not a 1:1 Ka.
Where [15] appears, read: derived from two Tm (66 and 67).
Where [16] appears, read: derived from two Tm (65 and 65).

A word on the Kd: it is the concentration at which binding is half-saturated. Low values mean a tighter complex, high ones a looser complex.

In the case of `CN(C)[C@@H]1C(=O)C(C(N)=O)=C(O)[C@@]2(O)C(=O)C3=C(O)c4c(O)cccc4[C@@](C)(O)[C@H]3C[C@@H]12`, the “Log(K)” value in assay [1] (549 nm, 1:1 model, conditional constant, per base) is on record as 5.02 ± 1.05; in assay [1] (549 nm, 1:2 model, not a 1:1 Ka), 11.70 ± 1.37; in assay [2] (505 nm, 1:1 model, conditional constant, per base), 4.37 ± 0.56; in assay [2] (505 nm, 1:2 model, not a 1:1 Ka), 9.57 ± 0.71; in assay [3] (0 mM Mg2+, 549 nm, 1:1 model, conditional constant, per base), 4.64 ± 0.96; in assay [3] (0 mM Mg2+, 549 nm, 1:2 model, not a 1:1 Ka) it was 11.18 ± 0.99. The molecule further had a Kd in [4] (ligand stock 1 mM) of 448.1 ± 86.4 µM.

Take `C[C@H]1c2cccc(O)c2C(O)=C2C(=O)[C@]3(O)C(O)=C(C(N)=O)C(=O)[C@@H](N(C)C)[C@@H]3[C@@H](O)[C@@H]21`: the “Log(K)” value was found to be 4.62 ± 0.3 in assay [1] (setting [11]); 11.34 ± 1.81 in assay [1] (setting [12]); 4.14 ± 0.57 in assay [2] (setting [11]); 10.39 ± 1.8 in assay [2] (setting [12]); 9.85 ± 0.99 in assay [3] (0 mM Mg2+, 540 nm, 1:2 model, not a 1:1 Ka); 5.39 ± 0.96 in assay [3] (10 mM Mg2+ (MgSO4), 537 nm, 1:1 model, conditional constant, per base). Moreover, the “melting temperature shift (ΔTm)” value in [5] (derived from two Tm (67 and 67)) is 0 °C; in assay [6] (derived from two Tm (64 and 65)), -1 °C. The molecule also came in with a Kd in assay [4] (ligand stock 1 mM) of 366.2 ± 74.9 µM.

`COc1cccc2c1C(=O)c1c(O)c3c(c(O)c1C2=O)C[C@@](O)(C(=O)CO)C[C@@H]3O[C@H]1C[C@H](N)[C@H](O)[C@H](C)O1` [doxorubicin]: the “Log(K)” value in assay [1] (setting [13]) was 5.21 ± 0.75; in [1] (setting [14]), 11.23 ± 1.10; in [2] (setting [13]), 4.50 ± 0.72; in assay [2] (setting [14]), 10.13 ± 1.23; in assay [3] (0 mM Mg2+, 595 nm, 1:1 model, conditional constant, per base), 5.03 ± 0.75; in assay [3] (0 mM Mg2+, 595 nm, 1:2 model, not a 1:1 Ka), 10.69 ± 1.14. Also, the Kd at human RNase [7] turned out to be 4.8 ± 2 µM; in assay [4] (ligand stock 0.25 mM, Kd above tested range) it was 251 ± 22 µM. Besides, the “melting temperature shift (ΔTm)” value was -1 °C in [5] (setting [15]) and 0 °C in assay [6] (setting [16]).

In turn, `C[C@H]1c2cccc(O)c2C(=O)C2=C(O)[C@]3(O)C(=O)C(C(N)=O)=C(O)[C@@H](N(C)C)[C@@H]3[C@@H](O)[C@@H]21` [doxycycline] came in with a Kd at human RNase [8] of 0.149 ± 0.052 µM.

`CN(C)c1ccc(O)c2c1C[C@H]1C[C@H]3[C@H](N(C)C)C(O)=C(C(N)=O)C(=O)[C@@]3(O)C(O)=C1C2=O` [minocycline] displayed an equilibrium dissociation constant (Kd) at human RNase [9] of 0.509 ± 0.118 µM. The results for the “melting temperature shift (ΔTm)” value in [5] (setting [15]) and in [6] (setting [16]) were -1 °C and 0 °C, respectively. In addition, in assay [10], the binding result is recorded as “yes”.

Consider `CN(C)[C@@H]1C(O)=C(C(N)=O)C(=O)[C@@]2(O)C(O)=C3C(=O)c4c(O)cccc4[C@@](C)(O)[C@H]3C[C@@H]12` [tetracycline], for which the Kd at human RNase [7] amounted to 24.5 µM.
